Patent publication US9440969B2, “Compounds and methods for kinase modulation, and indications therefor” (PLEXXIKON INC., priority 2009, dated 2016)

What was measured:
CYP2C9 = CYP2C9 (Homo sapiens, UniProt P11712); assay: CYP2C9 inhibition (fluorescent substrate MFC); type: in vitro ADME; conditions: read-out: Cyp IC50 (μM) 2C9
Procedure: CYP (Cytochrome P450) enzymes are the major drug metabolizing enzymes present in the liver. The inhibition of CYP enzyme activity (IC50) for each of CYP1A2, CYP2C19, CYP2C9, CYP2D6, CYP3A4(BFC) and CYP3A4(BQ) is determined for compounds, where inhibition of metabolism of a known substrate leads to a decrease in the fluorescence of the metabolized product. The fluorescence of the product is monitored as a function of compound concentration. Compounds are dissolved in dimethyl sulfoxide to a concentration of 100 mM. These are diluted […], into 82 μL of acetonitrile. An 11 μL aliquot of this solution is then added to 204 μL of cofactor mix (1.3% NADPH Regeneration system Solution A, 1.04% NADPH Regeneration system Solution B from BD Biosciences, 5% acetonitrile and 0.05% dimethyl sulfoxide). These are then serially diluted 1:1 (160 μL to 160 μL co-factor mix) for a total of 10 points. A 10 μL aliquot of this final mixture is dispensed into 384 well assay plates and incubated for 10 minutes at 37° C. Enzyme and substrate mix (10 μL; 0.5 pmol CYP1A2/5 μM CEC; 1.0 pmol CYP2C9/75 μM MFC; 0.5 pmol CYP2C19/25 μM CEC; 1.5 pmol CYP2D6/1.5 μM AMMC; 1.0 pmol CYP3A4/50 μM BFC; or 1.0 pmol CYP3A4/40 μM BQ) is added to these assay plates. Assay plates are incubated at 37° C. (CYP1A2-15 min; CYP2C9-45 min; CYP2C19, 2D6 and 3A4-30 min) and read in a Tecan Safire 2 plate reader (CYP1A2, 2C19 and 3A4 409 ex/460 em; CYP2C9 and 2D6 409 ex/530 em). The signal versus compound concentration is used to determine the IC50. The enzymes and substrates for this assay are obtained from BD Biosciences.

[1] = system: COLO205 colon adenocarcinoma (B-Raf V600E mutation); assay: COLO205 cell growth inhibition (ATPlite luminescence); type: cell-based; conditions: Homo sapiens, COLO 205, 72 h, COLO205 cells, incubated 3 days with compound
Outline: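 Cells seeded at 6×10^4 cells/mL in line-specific medium with 10% FBS, held overnight at 37°C, then given an 8-point 1:3 compound titration (top 10 μM final) for 3 days at 37°C, 5% CO2. ATP content read by ATPlite luminescence as a cell-number proxy; IC50 fitted from luminescence versus concentration.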

CYP2C9, sequence (P11712 whole entry): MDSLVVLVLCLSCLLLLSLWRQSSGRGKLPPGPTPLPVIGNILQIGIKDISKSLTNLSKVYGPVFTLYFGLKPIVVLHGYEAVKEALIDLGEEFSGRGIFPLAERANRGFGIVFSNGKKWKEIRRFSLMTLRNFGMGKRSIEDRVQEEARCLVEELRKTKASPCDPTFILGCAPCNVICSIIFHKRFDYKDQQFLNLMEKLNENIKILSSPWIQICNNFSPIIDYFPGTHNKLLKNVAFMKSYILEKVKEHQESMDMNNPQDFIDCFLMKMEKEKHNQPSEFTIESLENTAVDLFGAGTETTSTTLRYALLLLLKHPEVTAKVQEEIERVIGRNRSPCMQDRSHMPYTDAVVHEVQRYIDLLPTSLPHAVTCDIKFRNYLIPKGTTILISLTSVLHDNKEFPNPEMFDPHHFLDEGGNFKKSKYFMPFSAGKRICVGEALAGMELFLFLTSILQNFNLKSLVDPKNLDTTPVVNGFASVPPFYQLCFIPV

| IC50 (CYP2C9) [µM] | IC50 [1] [µM] | Compound |
| --- | --- | --- |
| > 10 |  | Cc1ncc(-c2cnc3[nH]cc(C(=O)c4c(F)ccc(NS(=O)(=O)c5cc(F)ccc5F)c4F)c3c2)cn1 [P-1503, N-{2,4-Difluoro-3-[5-(2-methyl-pyrimidin-5-yl)-1H-pyrrolo[2,3-b]pyridine-3-carbonyl]-phenyl}-2,5-difluoro-benzenesulfonamide] |
| > 10 | < 1 | CCCS(=O)(=O)Nc1ccc(F)c(C(=O)c2c[nH]c3ncc(-c4ccc5c(cnn5S(C)(=O)=O)c4)cc23)c1F [P-0016, propane-1-sulfonic acid {2,4-difluoro-3-[5-(1-methanesulfonyl-1H-indazol-5-yl)-1H-pyrrolo[2,3-b]pyridine-3-carbonyl]-phenyl}-amide] |
| 5 to 10 |  | Cc1ccc(-c2cnc3[nH]cc(C(=O)c4c(F)ccc(NS(=O)(=O)c5cc(F)ccc5F)c4F)c3c2)cn1 [P-1408, N-{2,4-Difluoro-3-[5-(6-methyl-pyridin-3-yl)-1H-pyrrolo[2,3-b]pyridine-3-carbonyl]-phenyl}-2,5-difluoro-benzenesulfonamide] |
| < 5 | < 1 | CCCS(=O)(=O)Nc1ccc(F)c(C(=O)c2c[nH]c3ncc(-c4ccc5[nH]ncc5c4)cc23)c1F [P-0001, propane-1-sulfonic acid {2,4-difluoro-3-[5-(1H-indazol-5-yl)-1H-pyrrolo[2,3-b]pyridine-3-carbonyl]-phenyl}-amide] |
| < 5 | < 1 | CCCS(=O)(=O)Nc1ccc(F)c(C(=O)c2c[nH]c3ncc(-c4ccc5c(cnn5C(C)=O)c4)cc23)c1F [P-0007, propane-1-sulfonic acid {3-[5-(1-acetyl-1H-indazol-5-yl)-1H-pyrrolo[2,3-b]pyridine-3-carbonyl]-2,4-difluoro-phenyl}-amide] |
| < 5 | < 1 | CC(=O)N(c1ccc(F)c(C(=O)c2cn(C(C)=O)c3ncc(-c4ccc5c(cnn5C(C)=O)c4)cc23)c1F)S(=O)(=O)c1cc(F)ccc1F [P-0006, N-Acetyl-N-{3-[1-acetyl-5-(1-acetyl-1H-indazol-5-yl)-1H-pyrrolo[2,3-b]pyridine-3-carbonyl]-2,4-difluoro-phenyl}-2,5-difluoro-benzenesulfonamide] |
| 5 to 10 | < 1 | CCCS(=O)(=O)Nc1ccc(F)c(C(=O)c2c[nH]c3ncc(-c4ccc5[nH]ccc5c4)cc23)c1F [P-0012, Propane-1-sulfonic acid {2,4-difluoro-3-[5-(1H-indol-5-yl)-1H-pyrrolo[2,3-b]pyridine-3-carbonyl]-phenyl}-amide] |
| < 5 | < 1 | O=C(c1c(F)ccc(NS(=O)(=O)c2cc(F)ccc2F)c1F)c1c[nH]c2ncc(-c3ccc4[nH]ncc4c3)cc12 [P-0002, N-{2,4-Difluoro-3-[5-(1H-indazol-5-yl)-1H-pyrrolo[2,3-b]pyridine-3-carbonyl]-phenyl}-2,5-difluoro-benzenesulfonamide] |
| > 10 | < 1 | CCCS(=O)(=O)Nc1ccc(F)c(C(=O)c2c[nH]c3ncc(-c4cnn(C5CCNCC5)c4)cc23)c1F [P-1002, Propane-1-sulfonic acid {2,4-difluoro-3-[5-(1-piperidin-4-yl-1H-pyrazol-4-yl)-1H-pyrrolo[2,3-b]pyridine-3-carbonyl]-phenyl}-amide] |
| < 5 | < 1 | CC(=O)n1ncc2cc(-c3cnc4[nH]cc(C(=O)c5c(F)ccc(NS(=O)(=O)c6cc(F)ccc6F)c5F)c4c3)ccc21 [P-0005, N-{3-[5-(1-Acetyl-1H-indazol-5-yl)-1H-pyrrolo[2,3-b]pyridine-3-carbonyl]-2,4-difluoro-phenyl}-2,5-difluoro-benzenesulfonamide] |
| < 5 | < 1 | CC(=O)n1cc(C(=O)c2c(F)ccc(NS(=O)(=O)c3cc(F)ccc3F)c2F)c2cc(-c3ccc4c(cnn4C(C)=O)c3)cnc21 [P-0004, N-{3-[1-Acetyl-5-(1-acetyl-1H-indazol-5-yl)-1H-pyrrolo[2,3-b]pyridine-3-carbonyl]-2,4-difluoro-phenyl}-2,5-difluoro-benzenesulfonamide] |
| > 10 | < 1 | CCCS(=O)(=O)Nc1ccc(F)c(C(=O)c2c[nH]c3ncc(-c4ccc5[nH]cc(C)c5c4)cc23)c1F [P-0023, Propane-1-sulfonic acid {2,4-difluoro-3-[5-(3-methyl-1H-indol-5-yl)-1H-pyrrolo[2,3-b]pyridine-3-carbonyl]-phenyl}-amide] |
| < 5 | < 1 | CCCS(=O)(=O)Nc1ccc(F)c(C(=O)c2c[nH]c3ncc(-c4csc(-n5ccnc5C)n4)cc23)c1F [P-1101, Propane-1-sulfonic acid (2,4-difluoro-3-{5-[2-(2-methyl-imidazol-1-yl)-thiazol-4-yl]-1H-pyrrolo[2,3-b]pyridine-3-carbonyl}-phenyl)-amide] |
| 5 to 10 | < 1 | CCCS(=O)(=O)Nc1ccc(F)c(C(=O)c2c[nH]c3ncc(-c4ccc5cncnc5c4)cc23)c1F [P-0025, Propane-1-sulfonic acid [2,4-difluoro-3-(5-quinazolin-7-yl-1H-pyrrolo[2,3-b]pyridine-3-carbonyl)-phenyl]-amide] |
| 5 to 10 | < 1 | CCCS(=O)(=O)Nc1ccc(F)c(C(=O)c2c[nH]c3ncc(-c4ccc5cn(C)nc5c4)cc23)c1F [P-0011, Propane-1-sulfonic acid {2,4-difluoro-3-[5-(2-methyl-2H-indazol-6-yl)-1H-pyrrolo[2,3-b]pyridine-3-carbonyl]-phenyl}-amide] |
| < 5 | < 1 | CNC(=O)n1ncc2cc(-c3cnc4[nH]cc(C(=O)c5c(F)ccc(NS(=O)(=O)c6cc(F)ccc6F)c5F)c4c3)ccc21 [P-0003, 5-{3-[3-(2,5-Difluoro-benzenesulfonylamino)-2,6-difluoro-benzoyl]-1H-pyrrolo[2,3-b]pyridin-5-yl}-indazole-1-carboxylic acid methylamide] |
| 5 to 10 | < 1 | CCCS(=O)(=O)Nc1ccc(F)c(C(=O)c2c[nH]c3ncc(-c4cccc5nn(C)cc45)cc23)c1F [P-0015, Propane-1-sulfonic acid {2,4-difluoro-3-[5-(2-methyl-2H-indazol-4-yl)-1H-pyrrolo[2,3-b]pyridine-3-carbonyl]-phenyl}-amide] |
| > 10 | < 1 | CCCS(=O)(=O)Nc1ccc(F)c(C(=O)c2c[nH]c3ncc(-c4ccc5ncsc5c4)cc23)c1F [P-0020, Propane-1-sulfonic acid [3-(5-benzothiazol-6-yl-1H-pyrrolo[2,3-b]pyridine-3-carbonyl)-2,4-difluoro-phenyl]-amide] |
| > 10 | > 1 | O=C(c1c(F)ccc(NS(=O)(=O)c2ccc(C(F)(F)F)cc2)c1F)c1c[nH]c2ncc(-c3cnn(C4CCNCC4)c3)cc12 [P-1004, N-{2,4-Difluoro-3-[5-(1-piperidin-4-yl-1H-pyrazol-4-yl)-1H-pyrrolo[2,3-b]pyridine-3-carbonyl]-phenyl}-4-trifluoromethyl-benzenesulfonamide] |
| > 10 | < 1 | CCCS(=O)(=O)Nc1ccc(F)c(C(=O)c2c[nH]c3ncc(-c4ccc5nn(C)cc5c4)cc23)c1F [P-0010, Propane-1-sulfonic acid {2,4-difluoro-3-[5-(2-methyl-2H-indazol-5-yl)-1H-pyrrolo[2,3-b]pyridine-3-carbonyl]-phenyl}-amide] |
